From PMC8402609, “Guiding the Immune Response to a Conserved Epitope in MSP2, an Intrinsically Disordered Malaria Vaccine Candidate” (Vaccines, 2021)
pKd: −log10 of the molar value. Where two headings read alike, the source gives them in different places. Where a SMILES comes first, the peptide text is derived from it. Bridges are numbered along the chain shown (N, C = ends).

Assays:
[1] = biological target: 4D11 IgG; test: SPR competition binding assay, mAb 4D11; design: species or system mouse; details: read-out: Kd against 4D11 IgG
Procedure: (§1) Affinities for peptide epitopes and dimer peptides to 4D11 and 9H4 IgG were measured by surface plasmon resonance (SPR) (Biacore T200, GE Healthcare, Parramatta, Australia) using a competition assay method developed previously. First, 3D7 MSP2 was immobilised on a CM5 chip. To determine binding, eight three-fold dilutions of peptide, from 10 µM stock were added with 50 nM 4D11/9H4 IgG to compete with the immobilised antigen. A standard curve was established by flowing eight two-fold dilutions of 4D11 or 9H4 IgG from a 100 nM stock solution.
Following the MD simulations, each peptide was synthesised by standard Fmoc synthesis. Orthogonal protection of cysteines was used to ensure that the desired disulfide bond was formed, leaving a single free cysteine for conjugation to an appropriate carrier for immunisation. […] Consequently, disulfide bond formation and cyclisation coupling were performed in solution. To determine if the additions incorporated into the dimer sequence hindered binding to 4D11, SPR was used to measure their binding affinity to the mAb (Table 2). […] For immunisations, the commonly used carrier protein, keyhole limpet hemocyanin (KLH) was chosen. As conjugation to KLH required a free thiol, an additional cysteine residue was included in all of the peptides (Figure 2).

[2] = biological target: 9H4 IgG; test: SPR competition binding assay, mAb 9H4; design: species or system mouse; details: SPR competition assay (Biacore T200); 3D7 MSP2 immobilised on CM5 chip; eight three-fold dilutions of peptide from 10 µM with 50 nM 9H4 IgG; alanine scan of 16-residue MSP2_207–222; read-out: Kd against 9H4 IgG
Procedure: as §1
In our previous work, the minimal epitope and key residues involved in 4D11 binding were defined as the 8-residue peptide 3D7-MSP2_215–222, with Lys216, Glu217 and Asn218 crucial for binding. To characterise the epitope of 9H4 and compare it with that of 4D11, the same alanine-scan peptides were used to probe 9H4 binding (Figure 1A,B). Affinities for 9H4 binding were measured by SPR, using a competition binding assay described previously.

[3] = SPR competition assay (Biacore T200), 3D7 MSP2 immobilised on CM5 chip, eight three-fold dilutions of peptide from 10 µM with 50 nM 4D11 IgG, alanine scan of 16-residue MSP2_207–222
[4] = SPR competition binding assay, peptides for KLH conjugation (Table 2), 3D7 MSP2 on CM5 chip, 50 nM 4D11 IgG

| Structure (SMILES) | pKd [1, 3] | pKd [2] | pKd [1, 4] |
| --- | --- | --- | --- |
| CC(=O)N[C@@H](CO)C(=O)N[C@@H](CCC(N)=O)C(=O)N[C@@H](CCCCN)C(=O)N[C@@H](CCC(=O)O)C(=O)N[C@H]1CSSC[C@@H](C(=O)NCC(=O)N[C@@H](C)C(=O)N[C@@H](C)C(N)=O)NC(=O)[C@H](CC(N)=O)NC(=O)[C@H](C)NC(=O)[C@H](CCCCN)NC(=O)[C@H](CC(N)=O)NC(=O)CNC(=O)[C@H](CC(=O)O)NC(=O)[C@H]([C@@H](C)O)NC1=O [Peptide E217A] (Ac-SQKECTDGNKANCGAA-NH2; disulfide 5-13) | 3.66 | 7.05 |  |
| CC(=O)N[C@@H](CO)C(=O)N[C@@H](CCC(N)=O)C(=O)N[C@@H](CCCCN)C(=O)N[C@@H](CCC(=O)O)C(=O)N[C@H]1CSSC[C@@H](C(=O)NCC(=O)N[C@@H](C)C(=O)N[C@@H](C)C(N)=O)NC(=O)[C@H](CC(N)=O)NC(=O)[C@H](CCC(=O)O)NC(=O)[C@H](CCCCN)NC(=O)[C@H](C)NC(=O)CNC(=O)[C@H](CC(=O)O)NC(=O)[C@H]([C@@H](C)O)NC1=O [Peptide N215A] (Ac-SQKECTDGAKENCGAA-NH2; disulfide 5-13) | 6.30 | 7.00 |  |
| CC(=O)N[C@@H](CO)C(=O)N[C@@H](CCC(N)=O)C(=O)N[C@@H](CCCCN)C(=O)N[C@@H](CCC(=O)O)C(=O)N[C@H]1CSSC[C@@H](C(=O)NCC(=O)N[C@@H](C)C(=O)N[C@@H](C)C(N)=O)NC(=O)[C@H](CC(N)=O)NC(=O)[C@H](CCC(=O)O)NC(=O)[C@H](C)NC(=O)[C@H](CC(N)=O)NC(=O)CNC(=O)[C@H](CC(=O)O)NC(=O)[C@H]([C@@H](C)O)NC1=O [Peptide K216A] (Ac-SQKECTDGNAENCGAA-NH2; disulfide 5-13) | 4.68 | 7.05 |  |
| CC(=O)N[C@@H](CO)C(=O)N[C@@H](CCC(N)=O)C(=O)N[C@@H](CCCCN)C(=O)N[C@@H](CCC(=O)O)C(=O)N[C@H]1CSSC[C@@H](C(=O)N[C@@H](C)C(=O)N[C@@H](C)C(=O)N[C@@H](C)C(N)=O)NC(=O)[C@H](CC(N)=O)NC(=O)[C@H](CCC(=O)O)NC(=O)[C@H](CCCCN)NC(=O)[C@H](CC(N)=O)NC(=O)CNC(=O)[C@H](CC(=O)O)NC(=O)[C@H]([C@@H](C)O)NC1=O [Peptide G220A] (Ac-SQKECTDGNKENCAAA-NH2; disulfide 5-13) | 4.37 | 5.54 |  |
| C[C@@H]1NC(=O)CNC(=O)[C@@H]2CSSC[C@H](NC(=O)[C@H](CC(N)=O)NC(=O)[C@H](CCC(=O)O)NC(=O)[C@H](CCCCN)NC(=O)[C@H](CC(N)=O)NC(=O)CNC(=O)CNC(=O)[C@H](C)NC1=O)C(=O)NCC(=O)N[C@@H](C)C(=O)N[C@@H](C)C(=O)N[C@@H](CS)C(=O)NCC(=O)N[C@@H](CC(N)=O)C(=O)N[C@@H](CCCCN)C(=O)N[C@@H](CCC(=O)O)C(=O)N[C@@H](CC(N)=O)C(=O)N2 [Peptide C2] (cyclo(AACGNKENCGAAGGNKENCG); disulfide 9-19) |  |  | 6.17 |
| CC(=O)N[C@@H](CO)C(=O)N[C@@H](CCC(N)=O)C(=O)N[C@@H](CCCCN)C(=O)N[C@@H](CCC(=O)O)C(=O)N[C@H]1CSSC[C@@H](C(=O)NCC(=O)N[C@@H](C)C(=O)N[C@@H](C)C(N)=O)NC(=O)[C@H](C)NC(=O)[C@H](CCC(=O)O)NC(=O)[C@H](CCCCN)NC(=O)[C@H](CC(N)=O)NC(=O)CNC(=O)[C@H](CC(=O)O)NC(=O)[C@H]([C@@H](C)O)NC1=O [Peptide N218A] (Ac-SQKECTDGNKEACGAA-NH2; disulfide 5-13) | 5.22 | 5.57 |  |
| CC(=O)N[C@@H](CO)C(=O)N[C@@H](CCC(N)=O)C(=O)N[C@@H](CCCCN)C(=O)N[C@@H](CCC(=O)O)C(=O)N[C@H]1CSSC[C@@H](C(=O)NCC(=O)N[C@@H](C)C(=O)N[C@@H](C)C(N)=O)NC(=O)[C@H](CC(N)=O)NC(=O)[C@H](CCC(=O)O)NC(=O)[C@H](CCCCN)NC(=O)[C@H](CC(N)=O)NC(=O)CNC(=O)[C@H](CC(=O)O)NC(=O)[C@H]([C@@H](C)O)NC1=O [3D7-MSP2_207–222 (WT)] (Ac-SQKECTDGNKENCGAA-NH2; disulfide 5-13) | 6.05 | 5.82 |  |
| CC(=O)N[C@@H](C)C(=O)N[C@@H](CCC(N)=O)C(=O)N[C@@H](CCCCN)C(=O)N[C@@H](CCC(=O)O)C(=O)N[C@H]1CSSC[C@@H](C(=O)NCC(=O)N[C@@H](C)C(=O)N[C@@H](C)C(N)=O)NC(=O)[C@H](CC(N)=O)NC(=O)[C@H](CCC(=O)O)NC(=O)[C@H](CCCCN)NC(=O)[C@H](CC(N)=O)NC(=O)CNC(=O)[C@H](CC(=O)O)NC(=O)[C@H]([C@@H](C)O)NC1=O [Peptide S207A] (Ac-AQKECTDGNKENCGAA-NH2; disulfide 5-13) | 6.30 | 5.54 |  |
| CC(=O)N[C@@H](CO)C(=O)N[C@@H](CCC(N)=O)C(=O)N[C@@H](CCCCN)C(=O)N[C@@H](CCC(=O)O)C(=O)N[C@H]1CSSC[C@@H](C(=O)NCC(=O)N[C@@H](C)C(=O)N[C@@H](C)C(N)=O)NC(=O)[C@H](CC(N)=O)NC(=O)[C@H](CCC(=O)O)NC(=O)[C@H](CCCCN)NC(=O)[C@H](CC(N)=O)NC(=O)[C@H](C)NC(=O)[C@H](CC(=O)O)NC(=O)[C@H]([C@@H](C)O)NC1=O [Peptide G214A] (Ac-SQKECTDANKENCGAA-NH2; disulfide 5-13) | 6.40 | 7.15 |  |
| CC(=O)N[C@@H](CO)C(=O)N[C@@H](CCC(N)=O)C(=O)N[C@@H](CCCCN)C(=O)N[C@@H](CCC(=O)O)C(=O)N[C@H]1CSSC[C@@H](C(=O)NCC(=O)N[C@@H](C)C(=O)N[C@@H](C)C(N)=O)NC(=O)[C@H](CC(N)=O)NC(=O)[C@H](CCC(=O)O)NC(=O)[C@H](CCCCN)NC(=O)[C@H](CC(N)=O)NC(=O)CNC(=O)[C@H](C)NC(=O)[C@H]([C@@H](C)O)NC1=O [Peptide D213A] (Ac-SQKECTAGNKENCGAA-NH2; disulfide 5-13) | 6.30 |  |  |
| CC(=O)N[C@@H](CO)C(=O)N[C@@H](CCC(N)=O)C(=O)N[C@@H](CCCCN)C(=O)N[C@@H](CCC(=O)O)C(=O)N[C@H]1CSSC[C@@H](C(=O)NCC(=O)N[C@@H](C)C(=O)N[C@@H](C)C(N)=O)NC(=O)[C@H](CC(N)=O)NC(=O)[C@H](CCC(=O)O)NC(=O)[C@H](CCCCN)NC(=O)[C@H](CC(N)=O)NC(=O)CNC(=O)[C@H](CC(=O)O)NC(=O)[C@H](C)NC1=O [Peptide T212A] (Ac-SQKECADGNKENCGAA-NH2; disulfide 5-13) | 6.30 | 5.32 |  |
| CC(=O)N[C@@H](CO)C(=O)N[C@@H](CCC(N)=O)C(=O)N[C@@H](CCCCN)C(=O)N[C@@H](C)C(=O)N[C@H]1CSSC[C@@H](C(=O)NCC(=O)N[C@@H](C)C(=O)N[C@@H](C)C(N)=O)NC(=O)[C@H](CC(N)=O)NC(=O)[C@H](CCC(=O)O)NC(=O)[C@H](CCCCN)NC(=O)[C@H](CC(N)=O)NC(=O)CNC(=O)[C@H](CC(=O)O)NC(=O)[C@H]([C@@H](C)O)NC1=O [Peptide E210A] (Ac-SQKACTDGNKENCGAA-NH2; disulfide 5-13) | 6.30 | 5.85 |  |
| C[C@@H]1NC(=O)CNC(=O)[C@@H]2CSSC[C@H](NC(=O)[C@H](CC(N)=O)NC(=O)[C@H](CCC(=O)O)NC(=O)[C@H](CCCCN)NC(=O)[C@H](CC(N)=O)NC(=O)CNC(=O)[C@H](CS)NC(=O)CNC(=O)[C@H](C)NC1=O)C(=O)NCC(=O)N[C@@H](C)C(=O)N[C@@H](C)C(=O)NCC(=O)NCC(=O)NCC(=O)N[C@@H](CC(N)=O)C(=O)N[C@@H](CCCCN)C(=O)N[C@@H](CCC(=O)O)C(=O)N[C@@H](CC(N)=O)C(=O)N2 [Peptide C3] (cyclo(AAGCGNKENCGAAGGGNKENCG); disulfide 10-21) |  |  | 5.98 |
| CC(=O)N[C@@H](CC(N)=O)C(=O)N[C@@H](CCCCN)C(=O)N[C@@H](CCC(=O)O)C(=O)N[C@@H](CC(N)=O)C(=O)N[C@H]1CSSC[C@@H](C(=O)NCC(=O)N[C@@H](C)C(=O)N[C@@H](C)C(=O)N[C@@H](CS)C(N)=O)NC(=O)[C@H](CC(N)=O)NC(=O)[C@H](CCC(=O)O)NC(=O)[C@H](CCCCN)NC(=O)[C@H](CC(N)=O)NC(=O)CNC(=O)CNC(=O)[C@H](C)NC(=O)[C@H](C)NC(=O)CNC1=O [Peptide L2] (Ac-NKENCGAAGGNKENCGAAC-NH2; disulfide 5-15) |  |  | 6.17 |
| CC(=O)N[C@@H](CC(N)=O)C(=O)N[C@@H](CCCCN)C(=O)N[C@@H](CCC(=O)O)C(=O)N[C@@H](CC(N)=O)C(=O)N[C@H]1CSSC[C@@H](C(=O)NCC(=O)N[C@@H](C)C(=O)N[C@@H](C)C(=O)N[C@@H](CS)C(N)=O)NC(=O)[C@H](CC(N)=O)NC(=O)[C@H](CCC(=O)O)NC(=O)[C@H](CCCCN)NC(=O)[C@H](CC(N)=O)NC(=O)CNC(=O)CNC(=O)CNC(=O)[C@H](C)NC(=O)[C@H](C)NC(=O)CNC1=O [Peptide L3] (Ac-NKENCGAAGGGNKENCGAAC-NH2; disulfide 5-16) |  |  | 6.24 |
